Results on one compound are retold here after article PMC9737734, “Phytochemical investigation of Ludwigia adscendens subsp. diffusa aerial parts in context of its biological activity” (BMC Chemistry, 2022).

In the test the test system is PC-3 cells (human prostate cancer cell line). As to the kind of experiment: Cytotoxic activity, MTT cell viability assay against PC-3 cell line. In kind it is cell-based. The following applies: read-out: Cytotoxcity activity IC50. As for the experimental part: Cytotoxic activity of L. adscendens aerial part fractions were tested in vitro using MTT cell viability assay as previously described. Briefly, in each well plate 100 µL of fresh culture RPMI 1640 medium without phenol red then 10 µL of the 12 mM MTT stock solution (5 mg of MTT in 1 mL of PBS) were added to each well. An 85 µL aliquot of the incubated media was replaced by 50 µL of DMSO and incubated at 37 °C for 10 min. The optical density was measured at 590 nm with the microplate reader to determine the number of viable cells and the percentage of viability was calculated as the percentage of cell survival was calculated as follows: Surviving fraction=O.D.treated cells/O.D.control cells∗100
On the technique in general: Formazan colour is commonly taken as a measure of viable cells.

In brackets after ≈: the same amount, converted by molar mass.

One may read the IC50 as the concentration needed to halve the response being measured. Turning to `COc1cccc2c1C(=O)c1c(O)c3c(c(O)c1C2=O)C[C@@](O)(C(=O)CO)C[C@@H]3O[C@H]1C[C@H](N)[C@H](O)[C@H](C)O1` [Doxorubicin], the IC50 was found to be 34.9 ± 5.21 mg/L (≈ 64.2 µM).
